Measurements as given in patent publication US6806266B1 (priority 1999, dated 2004).
Read-outs that look alike come from different tables or passages of the source.

Key:
[1] = test system: human epidermal cancer cell line A431; type: cell-based; conditions: A431 cells
Procedure: After the removal of the culture supernatant, the cells were washed with PBS(−), detached in an aqueous solution of 0.25% of Trypsin (GIBCO BRL) and 0.02% of ethylenediaminetetraacetic acid (Wako Pure Chemical Industries, Ltd.), then fixed at a density of 10^6 cells/mL with a 70% aqueous solution of ethanol and stored in a cold room at 4° C. Ethanol was removed by centrifugation from the fixed cells, and then the fixed cells were washed with PBS(−). The cells were treated at 37° C. for 30 minutes with a 0.25 mg/mL PBS(−)solution of ribonuclease A type 1-A (Sigma) containing 0.1% of Nonidet P-40 (Nacalai Tesque, Inc.), and then a solution of propidiumiodide (Sigma) in 0.1% NP-40/PBS(−) was added into the cells at a final concentration of 50 μg/mL, and the cells were stained in ice for at least 20 minutes.
A DNA histogram was taken by EPICS ELITE Flow Cytometer, and the cell cycle distribution was analyzed by use of MultiCycle Program.
In the method shown in Test Example 3, the G2 stage and the M stage of the cell cycle can not be distinguished from each other, and thus the distrubution of the G2 stage combined with that of the M stage (G2 stage+M stage) is expressed in percentage.

human AGP (hα1AGP) = type: binding; conditions: equimolar solution (20 μmol/L) of test compound and human AGP, PBS pH=7.4, 37° C., two hours after mixing with DCC; HPLC peak area ratio
Procedure: A solution of the test compound in DMSO was added to an isotonic phosphate buffer (PBS, pH=7.4) containing human AGP, to prepare an equimolar solution (20 μmol/L) of the test compound and human AGP. The solution was pre-incubated at 37° C. for 15 minutes and then mixed with an equal volume of 4 mg/mL of DCC in PBS, and incubation was further continued. After two hours from mixing, a part of the solution was sampled and centrifuged (4° C., 20000×g, 2 minutes) to precipitate the charcoal, and the supernatant was subjected to HPLC analysis. Separately, an equimolar solution (20 μmol/L) of the test compound and human AGP was mixed with an equal volume of PBS (pH=7.4), and then the mixed solution was subjected as a DCC-untreated sample to HPLC analysis. The ratio of the peak area of the DCC-treated sample to the average peak area of the DCC-untreated sample (the solution mixed with PBS) was calculated as the degree of binding (%).

[2] = test system: human lung cancer cell line A-549; assay: Test for inhibitory activity on cell growth in human lung cancer cell line A-549; conditions: A549, 72 h, read-out: Inhibitory activity on cell growth (IC50/μmol/L)
[3] = Cisplatin 20 μmol/L + test compound 50 nmol/L, 8 hours

Compound	Cell cycle distribution (%) G1 stage ([1]; Cisplatin 20 μmol/L alone)	Cell cycle distribution (%) G2 stage + M stage ([1]; Cisplatin 20 μmol/L alone)	Cell cycle distribution (%) S stage ([1]; Cisplatin 20 μmol/L alone)	accumulation action at the G2 stage or S stage (cell cycle distribution versus untreated group) ([1]; only Cisplatin (20 μmol/L))	Degree of binding to hα1AGP (%) (human AGP (hα1AGP))	Cell cycle distribution (%) G1 stage [1, 3]	Cell cycle distribution (%) G2 stage + M stage [1, 3]	Cell cycle distribution (%) S stage [1, 3]	abrogation of accumulation action at the G2 stage and S stage ([1]; in combination with Cisplatin (20 μmol/L))	IC50 [2]
N.N.[Cl][Pt][Cl] [Cisplatin]	5.5%	17.5%	77.0%	An increase in the S stage, an increase in (G2 stage+M stage) and a decrease in the G1 stage	–	–	–	–	–	–
CN[C@@H]1C[C@H]2O[C@@](C)([C@@H]1OC)n1c3ccccc3c3c4c(c5c6ccccc6n2c5c31)C(=O)N[C@@H]4O [UCN-01]	–	–	–	–	76.8%	31.9%	27.6%	40.5%	a decrease in the S stage and an increase in the G1 stage	0.018 µmol/L
